{"source": "paper PMC4398456", "about": "“Evidence for a Novel Mechanism of Antimicrobial Action of a Cyclic R-,W-Rich Hexapeptide” (PLoS ONE, 2015)", "key": {"[1]": {"system": "mammalian cells", "settings": "cited from earlier work", "text": "The structure-activity-relationship of small cyclic R-,W-rich peptides is well characterised. […] With cationic charge and high amphipathicity the cyclic peptide features the structural determinants for membrane activity."}, "[2]": {"system": "E. coli DH5α", "settings": "microdilution; reported before; cited from earlier work"}, "[3]": {"experiment": "ITC binding to LUVs", "settings": "25°C; for K 0 (hydrophobic partition coefficient): phosphate buffer pH 7.4, surface partition model; for ΔG°: calculated as -RT ln(55.5 M × K 0); for -TΔS°: from Gibbs-Helmholtz equation", "text": "Large unilamellar vesicles (LUVs) were used for isothermal titration calorimetry studies and prepared as described before. […] As CL potentially carries two negative charges it was applied at half POPG concentrations to give liposomes with identical surface charge. Subsequently, chloroform was evaporated under nitrogen stream and obtained lipid films were dried under high vacuum for several hours and rehydrated in phosphate buffer by thorough vortexing. The solution was heated 2–3 times in a water bath to 40°C to facilitate resuspension. POPE-LUVs were obtained after 35-fold extrusion through two stacked polycarbonate membranes (100 nm pore size) using a mini extruder (Avestin, Switzerland). The procedure gives vesicles with a diameter of 90–120 nm as determined with dynamic light scattering (DLS) performed on a Zetasizer Nano ZS ZEN 3600 (Malvern Instruments, UK). Large liposomes for dye release experiments were prepared with a solution of 80 mM calcein in 10 mM Tris buffer, 0.1 mM EDTA, pH 7.4 and treated to remove non-incorporated dye as described before.\n(§1) High-sensitivity isothermal titration calorimetry (ITC) experiments to characterise peptide interaction with model membranes were performed at 25°C on a VP-ITC instrument (MicroCall, Malvern Instruments, UK). Binding data were generated as described before. Prior to use, solutions were gently degassed under vacuum. 10 μl aliquots of 5 to 10 mM lipid vesicles were titrated into a 40 μM peptide solution inside the calorimeter cell (1.4 ml) while the reaction mixture was continuously stirred at 307 rpm. Time intervals between injections were adjusted to 10 min which was sufficient for the heat signal to return to baseline level. Automated baseline adjustment and peak integration were accomplished with the public-domain software NITPIC [32].\n(§2) Binding parameters, such as hydrophobic partition coefficient (K 0) and enthalpy of binding (ΔH°), were derived by applying a surface partition equilibrium under the specific condition that peptide adsorption is linearly related to the peptide concentration immediately above the membrane surface. This concentration in close proximity to the membrane is determined by electrostatic interactions and depends on the bulk concentration of peptide, peptide charge and membrane surface potential. Negatively charged lipid layers attract cationic peptides. Consequently, the membrane surface concentration is enhanced compared to that in the bulk solution. After binding of cationic peptides to an electrically neutral membrane it becomes positively charged which results in a repulsion of further peptides from the membrane surface. Using the Gouy—Chapman theory which accounts for electrostatic effects, it is possible to calculate the peptide surface concentration and to determine the partition coefficient K 0 [33]. Nonlinear least-squares data fitting was performed with Excel 2010 (Microsoft) using the Solver add-in (Frontline Systems). The Gibbs free energy was calculated according to ΔG° = -RT ln(55.5 M × K 0), where 55.5 M is the molar concentration of water in the aqueous phase. Finally, the entropic contribution to membrane partitioning,-TΔS°, was derived from the Gibbs-Helmholtz equation, ΔG° = ΔH°-TΔS°."}, "[4]": {"system": "B. subtilis 168", "experiment": "Cardiolipin staining with NAO, fluorescence microscopy", "assay_type": "cell-based", "settings": "500 nM NAO 60 min, then 12 μM peptide 30 min, room temperature; 520 and 640 nm", "experimental": "Cells were first incubated with the dye for 60 minutes in the dark, at room temperature at 600 rpm (ensuring sufficient aeration). Afterwards, cWFW was added at a final concentration of 12 μM and co-incubated with NAO for another 30 minutes under the same conditions.\nSpecific staining of CL with NAO has been shown before and is neither influenced by fixation nor depolarisation of the membrane. The emission shift from green to red fluorescence (513 nm to 640 nm) was reported to be exclusive for binding to CL and is caused by narrow stacking of dye molecules. Images were captured using a Zeiss Axiovert M200 inverted fluorescence microscope and an LSM 510 ConfoCor2 (Germany) with plan-apochromat 63, 100×/1.4 objective, respectively, and processed with ImageJ."}, "[5]": {"system": "B. subtilis L-170 (cell wall-deficient L-form)", "assay_type": "cell-based", "settings": "microdilution, 96-well, 0.05 to 100 μM peptide, BHI with supplements, OD550 0.4, 18 hours, 37°C; triplicates, at least three independent experiments", "experimental": "(§3) For L-form bacteria BHI medium was supplemented with […] penicillin and additional 50 mg/ml sucrose and 30 mg/ml yeast extract in the case of B. subtilis L-170. L-form cells were cultivated as described above using flat bottom glass flasks and OD was measured at 550 nm (OD550 = 1 corresponds to 3.92 × 10^8 CFU/ml L-170 and 9.75 × 10^8 CFU/ml L-WF+).\n(§4) To determine the minimal inhibitory peptide concentration (MIC) of bacterial growth we applied a microdilution technique as described previously. Briefly, the antimicrobial activity was tested against L-form bacteria in 96-well plates with final peptide concentrations ranging from 0.05 to 100 μM. Cultures were diluted to OD550 0.4 in BHI containing strain-specific supplements. Cells were grown for 18 hours at 37°C and 180 rpm. Peptide activity was tested in triplicates in at least three independent experiments."}, "[6]": {"system": "E. coli L-WF+ (cell wall-deficient L-form, W1655 F+)", "assay_type": "cell-based", "settings": "microdilution, 96-well, 0.05 to 100 μM peptide, BHI with supplements, OD550 0.4, 18 hours, 37°C; triplicates, at least three independent experiments", "experimental": "as §3, §4"}, "[7]": {"system": "B. subtilis DSM 347", "settings": "microdilution; reported before; cited from earlier work"}, "[8]": {"experiment": "ITC binding to LUVs", "design": "species or system E. coli", "settings": "25°C", "experimental": "The lipid concentration of E. coli extract preparations was determined from dried lipid films by gravimetric analysis. Liposomes were prepared after resuspension in phosphate buffer and sonication on ice for 25 min under nitrogen stream using a Labsonic L ultrasonicator (B. Braun Biotech, Germany) followed by centrifugation for 5 min at 11000 × g (Eppendorf MiniSpin, Germany) to remove potential titanium debris. The diameter of LUVs from E. coli extract was 90 nm. According to manufacturer's data, E. coli polar lipid extract is a three component mixture containing 71.4% PE-, 23.4% PG-lipids and 5.2% CL (mol%).\nas §1, §2"}, "[9]": {"settings": "LUVs of POPC/CL (87.5/12.5 mol%)"}, "[10]": {"settings": "LUVs of POPE/CL (87.5/12.5 mol%)"}}, "note": "Residues, ends and D or L forms follow the SMILES beside them.", "data": [{"smiles": "N=C(N)NCCC[C@@H]1NC(=O)[C@H](CCCNC(=N)N)NC(=O)[C@H](Cc2c[nH]c3ccccc23)NC(=O)[C@H](Cc2ccccc2)NC(=O)[C@H](Cc2c[nH]c3ccccc23)NC(=O)[C@H](CCCNC(=N)N)NC1=O", "note": "[cWFW] (cyclo(FWRRRW))", "values": [{"measurement": "toxicity towards mammalian cells", "setting": "[1]", "value": "no toxicity"}, {"measurement": "MIC E. coli DH5α", "setting": "[2]", "value": 3, "unit": "µM"}, {"measurement": "ΔH°", "setting": "[3]; 5 mM LUVs into 40 μM peptide, γ = 1", "value": -2.87, "unit": "kcal/mol"}, {"measurement": "K 0 (hydrophobic partition coefficient)", "setting": "[3]; 5 mM LUVs titrated into 40 μM peptide, γ = 1", "value": "5.5e+07", "unit": "M⁻¹"}, {"measurement": "ΔH°", "setting": "[3]; 10 mM LUVs into 40 μM peptide, γ = 0.5", "value": -1.22, "unit": "kcal/mol"}, {"measurement": "K 0 (hydrophobic partition coefficient)", "setting": "[3]; 10 mM LUVs titrated into 40 μM peptide, γ = 0.5", "value": "3.7e+06", "unit": "M⁻¹"}, {"measurement": "K 0 (hydrophobic partition coefficient)", "setting": "[3]; 5 to 10 mM LUVs titrated into 40 μM peptide, γ = 0.5", "value": "1.4e+06", "unit": "M⁻¹"}, {"measurement": "ΔH°", "setting": "[3]; LUVs into 40 μM peptide, γ = 0.5", "value": -5.81, "unit": "kcal/mol"}, {"measurement": "ΔG°", "setting": "[3]; [9]", "value": -10.8, "unit": "kcal/mol"}, {"measurement": "ΔG°", "setting": "[3]; [10]", "value": -12.9, "unit": "kcal/mol"}, {"measurement": "ΔG°", "setting": "[3]; LUVs of POPE/POPG (75/25 mol%)", "value": -11.3, "unit": "kcal/mol"}, {"measurement": "-TΔS°", "setting": "[3]; [9]", "value": -4.95, "unit": "kcal/mol"}, {"measurement": "-TΔS°", "setting": "[3]; [10]", "value": -10.1, "unit": "kcal/mol"}, {"measurement": "-TΔS°", "setting": "[3]; LUVs of POPE/POPG (75/25 mol%)", "value": -10.1, "unit": "kcal/mol"}, {"measurement": "effect on NAO fluorescence (cardiolipin staining)", "setting": "[4]", "value": "significant decrease in NAO fluorescence intensity at both wavelengths"}, {"measurement": "MIC B. subtilis L-170", "setting": "[5]", "value": 6, "unit": "µM"}, {"measurement": "MIC E. coli L-WF+", "setting": "[6]", "value": 12, "unit": "µM"}, {"measurement": "MIC B. subtilis DSM 347", "setting": "[7]", "value": 3, "unit": "µM"}, {"measurement": "ΔH°", "setting": "[8]; 10 mM LUVs into 40 μM peptide, γ = 0.6", "value": -3.99, "unit": "kcal/mol"}, {"measurement": "K 0 (hydrophobic partition coefficient)", "setting": "[8]; 10 mM LUVs titrated into 40 μM peptide, phosphate buffer pH 7.4, surface partition model, γ = 0.6", "value": "8.8e+06", "unit": "M⁻¹"}, {"measurement": "ΔG°", "setting": "[8]; calculated as -RT ln(55.5 M × K 0), LUVs of E. coli extract", "value": -11.9, "unit": "kcal/mol"}, {"measurement": "-TΔS°", "setting": "[8]; from Gibbs-Helmholtz equation, LUVs of E. coli extract", "value": -7.86, "unit": "kcal/mol"}]}]}
